Results on 20 compounds are retold here after patent publication US20070178516A1, “Self-addressable self-assembling microelectronic integrated systems, component devices, mechanisms, methods, and procedures for molecular biological analysis and diagnostics” (NANOGEN, INC., priority 1993, published 2007).

In one data set the test system is ET-10AL capture sequence. Briefly: Electronically controlled fluorescent DNA/dye (ethidium bromide) detection. The format is binding. To be noted: capture ET-10AL; peak EB fluorescence after positive bias 0.05 mA, 0.03 Volt-Hours. The protocol: Microcapillary test devices were prepared and hybridized as described in Example 2 and 3. Ethidium bromide (EB) was added to the buffer solution (˜0.05 mM EB final concentration) and the test devices were biased negative to concentrate EB (positively charged) at both the hybridized and un-hybridized microlocations. The test devices were observed by epifluorescece microscopy at 550 nm excitation and 600 nm emission.
The test devices were re-mounted biased positive
constant current at 0.05 mA for 0.03 Volt-Hours, to selectively remove the EB. Fluorescence at the un-hybridized microlocations diminished while the hybridized microlocations retained a very high level of EB fluorescence. The results are given below:
Fluorescent signal was measured using an ICCD imaging
camera system and represent peak fluorescent intensities. The signal to noise ratio would be more than 1000 fold if the entire fluorescent signal area was integrated.

Data set [1] can be described thus: Conductivity measurements of transport buffers. The format is physicochemical.
The conditions of data set [2]: cited from earlier work.
The conditions of data set [3]: not told.

{Amino} = amino group added with ABI Aminolink 2 reagent, reacts with dyes such as Texas Red

In the case of “5′-Amino-CCT GCT CAT GAG TCT CTC (CCTGCTCATGAGTCTCTC; DNA, 5' {Amino}, backbone not given here; further chemistry not fully specified) [ET-11AL]”, the “Normalized Signal” value with ET-10AL capture sequence is over 200.

On to “5′-Amino-TGCGAGCTGCAGTCAGACAT (TGCGAGCTGCAGTCAGACAT; DNA, 5' {Amino}, backbone not given here; further chemistry not fully specified) [ET-21A]”, for which the “Normalized Signal” value in the data set on ET-10AL capture sequence was found to be 1.

For the compound `[Cl-].[Cl-].[Mg+2]` [0.1 mM MgCl2, MgCl2], in data set [1], the “Average/Std. Deviation (conductivity)” value is 17.3 +/− 0.87 μS/cm, the “Measurement 1 (conductivity)” value is listed as 16.9 μS/cm, the “Measurement 2 (conductivity)” value turned out to be 16.7 μS/cm and the “Measurement 3 (conductivity)” value stood at 18.3 μS/cm.

On to `[Cl-].[Na+]` [0.1 mM NaCl, NaCl], for which, in data set [1], the “Average/Std. Deviation (conductivity)” value was 9.43 +/− 0.93 μS/cm, the “Measurement 1 (conductivity)” value is on record as 8.80 μS/cm, the “Measurement 2 (conductivity)” value is listed as 8.98 μS/cm and the “Measurement 3 (conductivity)” value turned out to be 10.5 μS/cm.

`[Cl-].[Cl-].[Mg+2]` [1 mM MgCl2, MgCl2]: in data set [1], the “Average/Std. Deviation (conductivity)” value is recorded as 186 +/− 18.8 μS/cm, the “Measurement 1 (conductivity)” value was 174 μS/cm, the “Measurement 2 (conductivity)” value is given as 208 μS/cm and the “Measurement 3 (conductivity)” value came to 177 μS/cm.

In the case of `[Cl-].[Na+]` [1 mM NaCl, NaCl], in data set [1], the “Average/Std. Deviation (conductivity)” value was 112.7 +/− 2.08 μS/cm, the “Measurement 1 (conductivity)” value was 112 μS/cm, the “Measurement 2 (conductivity)” value was determined as 115 μS/cm and the “Measurement 3 (conductivity)” value is listed as 111 μS/cm.

On to `Cn1cncc1C[C@H](N)C(=O)O` [1(π)-methylhistidine], for which, in data set [2], the “pKa (first listed)” value is on record as 1.64,, the “pKa (second listed)” value was 6.46, and the “pKa (third listed)” value is 8.61^3.

For the compound `Cn1cnc(C[C@H](N)C(=O)O)c1` [3(τ)-methylhistidine], in data set [2], the “pKa (first listed)” value was 1.70,, the “pKa (second listed)” value is 5.87, and the “pKa (third listed)” value was 9.16^3.

With `O=C([O-])CCC(=O)[O-].[Na+].[Na+]` [5 mM NaSuccinate, NaSuccinate], in data set [1], the “Average/Std. Deviation (conductivity)” value is reported as 1.01 +/− 0.045 mS/cm, the “Measurement 1 (conductivity)” value is 1.05 mS/cm, the “Measurement 2 (conductivity)” value worked out at 960 μS/cm and the “Measurement 3 (conductivity)” value is recorded as 1.01 mS/cm.

`NC(CO)(CO)CO` [10 mM TRIS, TRIS]: in data set [1], the “Average/Std. Deviation (conductivity)” value is on record as 572 +/− 10.5 μS/cm, the “Measurement 1 (conductivity)” value is recorded as 572 μS/cm, the “Measurement 2 (conductivity)” value amounted to 562 μS/cm and the “Measurement 3 (conductivity)” value worked out at 583 μS/cm.

As to `O=S(=O)(O)CCN1CCN(CCO)CC1` [25 mM HEPES, HEPES], in data set [1], the “Average/Std. Deviation (conductivity)” value is on record as 9.7 +/− 0.71 μS/cm, the “Measurement 1 (conductivity)” value amounted to 9.16 μS/cm, the “Measurement 2 (conductivity)” value is listed as 9.44 μS/cm and the “Measurement 3 (conductivity)” value worked out at 10.5 μS/cm.

As for `N[C@@H](CS)C(=O)O` [250 mM Cysteine, Cysteine], in data set [1], the “Average/Std. Deviation (conductivity)” value is given as 22.7 +/− 5.09 μS/cm, the “Measurement 1 (conductivity)” value came to 27.4 μS/cm, the “Measurement 2 (conductivity)” value was 17.3 μS/cm and the “Measurement 3 (conductivity)” value came out at 23.5 μS/cm.

Consider `N[C@@H](CS)C(=O)O` [Cysteine], for which the conductance in data set [1] (250 mM cysteine solution, pH 4 to 6 range) is about 23 μS/cm.

For the compound `N[C@@H](Cc1c[nH]cn1)C(=O)O` [Histidine], the “pH above the surface of the permeation layer” value in data set [3] is over 5.

In data set [1] (20 mM sodium phosphate), `O=P(O)(O)O` [NaPO4, Sodium Phosphate] came in with a conductance of about 2.9 mS/cm.

With `c1c[nH]cn1` [imidazole], in data set [3], the “pH above the surface of the permeation layer” value is over 5.

Regarding `NCCC(=O)O` [β-Alanine], the “pKa (second listed)” value in data set [2] is listed as 10.19.

Regarding NaPO4 [1 mM NaPO4], in data set [1], the “Average/Std. Deviation (conductivity)” value is recorded as 128.7 +/− 7.0 μS/cm, the “Measurement 1 (conductivity)” value was determined as 122 μS/cm, the “Measurement 2 (conductivity)” value is on record as 128 μS/cm and the “Measurement 3 (conductivity)” value amounted to 136 μS/cm.

Consider NaPO4 [10 mM NaPO4], for which, in data set [1], the “Average/Std. Deviation (conductivity)” value is 1.44 +/− 0.04 mS/cm, the “Measurement 1 (conductivity)” value stood at 1.40 mS/cm, the “Measurement 2 (conductivity)” value was 1.44 mS/cm and the “Measurement 3 (conductivity)” value stood at 1.48 mS/cm.

Consider NaPO4 [20 mM NaPO4], for which, in data set [1], the “Average/Std. Deviation (conductivity)” value was 2.90 +/− 0.11 mS/cm, the “Measurement 1 (conductivity)” value was 2.90 mS/cm, the “Measurement 2 (conductivity)” value was 2.79 mS/cm and the “Measurement 3 (conductivity)” value came to 3.00 mS/cm.
